Series [1] has as its system HCT116-(CA)13 cells. As to conditions: 5 mM GSH. Here is the method:
After treatment, HCT116-(CA)13 cells in 96-well glass plates (Corning-Costar®) were fixed with 4% paraformaldehyde and nuclei were stained with 1 μg/ml Hoechst 33258. Fluorescent images of the cells were acquired at 100× magnification by ImageXpress^Micro system (Molecular Devices) and analyzed with MetaXpress® V3.1 software as described previously [Li et al., 2014]. The frequency of frameshift mutations of the (CA)13 microsatellite is expressed as the percentage of the DsRed^+GFP^+Hoechst^+ subpopulation in the GFP^+Hoechst^+ population.

The subject of another series is HCT116+chr3 cells. The series can be described thus: MTT assay in MMR-proficient cells. The settings on record: MMR-proficient HCT116+chr3, 1 μM oxaliplatin with 2-10 μM antioxidant, 3-day co-treatment. Here is the method: (§1) Cell viability was determined by the MTT assay. Briefly, the optical density of colored formazan converted from MTT by viable cells was determined as previously described [Chang et al., 2002] at 595 nm with an ELISA reader (Thermo Labsystems). Cell viability is expressed as the optical density value of drug-treated cells relative to that of solvent-treated cells, after subtracting the background from the medium.
(In general: Tetrazolium assays rely on reduction of a dye to a coloured formazan, in cell work by metabolically active cells.)

The test system of series [2] is HCT116-(CA)13 cells. The series can be described thus: REDOX library screen by high-content microscopy (MSI frequency and cell numbers). The settings on record: 1 μM oxaliplatin, additional concentrations, 3-day co-treatment, 3-day recovery. It counts as cell-based, human. The protocol: The REDOX library (Cat# BML-2835, ENZO, USA) is composed of 84 compounds that were supplied at 10 mM in DMSO. HCT116-(CA)13 cells were seeded at 1×10^4 cells per well in 96-well glass plates containing 100 μl growth medium. One day after seeding, the cells were co-treated with 1 μM oxaliplatin and an antioxidant at specified concentrations in triplicate for three days, followed by a 3-day recovery in fresh growth medium without the drug and antioxidants.

In the next series the test system is HCT116 cells. Briefly: MTT assay, oxaliplatin co-treatment in MMR-deficient cells. As to conditions: MMR-deficient HCT116, 1 μM oxaliplatin with 2-10 μM antioxidant, 3-day co-treatment. Here is the method: as §1

For the molecule `COc1cc(/C=C/C(=O)CC(=O)/C=C/c2ccc(O)c(OC)c2)ccc1O` [curcumin, (1E,6E)-1,7-bis(4-hydroxy-3-methoxyphenyl)hepta-1,6-diene-3,5-dione], the “suppression of methotrexate-induced MSI” value in the series with HCT116-(CA)13 cells [1] (25 nM methotrexate with 2.5 mM NAC, 250 μM vitamin C or 1.5 μM curcumin) was “did not affect methotrexate-induced MSI”. Also, in the series on HCT116-(CA)13 cells [1] (50 μM CCNU with 2.5 mM NAC, 250 μM vitamin C, 1.5 μM curcumin or 150 μM eugenol), the “suppression of CCNU-induced MSI” value is given as “approximately 55%”. Also, the “effect on oxaliplatin-mediated cytotoxicity” value with HCT116+chr3 cells and with HCT116 cells was “did not show a significant effect” in each case. Also, the “outcome of secondary screen: oxaliplatin-induced MSI and oxaliplatin-mediated cytotoxicity” value in the series with HCT116-(CA)13 cells [2] is “most promising antioxidants”.
